Assay results from PubChem BioAssay AID270 (DTP/NCI, 2004).
Records with an inconclusive call do not appear.

Tested on: BDF1 mice, s.c. Lewis lung carcinoma, T/C %
Assay: NCI In Vivo Anticancer Drug Screen. Data for tumor model Lewis Lung Carcinoma (subcutaneous) in B6D2F1 (BDF1) mice
Method in brief: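 Antitumor effect in vivo is scored from survival or tumor burden, reported as treated relative to vehicle controls.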

[1] = endpoint: median survival time, dose: 50.0 mg/kg/injection, schedule: Q01DX009 (ip), vehicle: Klucel (hydroxypropylcellulose) (HPC), higher = longer survival
[2] = endpoint: median survival time, dose: 100.0 mg/kg/injection, schedule: Q01DX009 (ip), vehicle: Klucel (hydroxypropylcellulose) (HPC), higher = longer survival

CCOC(=O)C(C)(C)Br
T/C (endpoint: mean tumor weight, dose: 75.0 mg/kg/injection, schedule: Q01DX011 (ip), vehicle: other, higher = larger tumour): 90 % of control
T/C (endpoint: mean tumor weight, dose: 150.0 mg/kg/injection, schedule: Q01DX011 (ip), vehicle: other, higher = larger tumour): 114 % of control
T/C (endpoint: mean tumor weight, dose: 300.0 mg/kg/injection, schedule: Q01DX011 (ip), vehicle: other, higher = larger tumour): 98 % of control
T/C (endpoint: mean tumor weight, dose: 500.0 mg/kg/injection, schedule: Q01DX011 (ip), vehicle: other, higher = larger tumour): 68 % of control
T/C (endpoint: mean tumor weight, dose: 600.0 mg/kg/injection, schedule: Q01DX011 (ip), vehicle: other, higher = larger tumour): 102 % of control
T/C (endpoint: mean tumor weight, dose: 750.0 mg/kg/injection, schedule: Q01DX011 (ip), vehicle: other, higher = larger tumour): 37 % of control

CCOC(=O)c1c[nH]c2c(Cl)c(C)ccc2c1=O
T/C (endpoint: mean tumor weight, dose: 104.0 mg/kg/injection, schedule: Q01DX011 (ip), vehicle: other, higher = larger tumour): 106 % of control
T/C (endpoint: mean tumor weight, dose: 155.0 mg/kg/injection, schedule: Q01DX011 (ip), vehicle: other, higher = larger tumour): 111 % of control
T/C (endpoint: mean tumor weight, dose: 350.0 mg/kg/injection, schedule: Q01DX011 (ip), vehicle: other, higher = larger tumour): 75 % of control

COc1ccc([C@@H]2c3cc4c(cc3C[C@H]3COC(=O)[C@@H]32)OCO4)cc1OC
T/C (endpoint: median survival time, dose: 11.0 mg/kg/injection, schedule: Q01DX009 (ip), vehicle: saline with Tween-80, higher = longer survival): 98 % of control
T/C (endpoint: median survival time, dose: 22.0 mg/kg/injection, schedule: Q01DX009 (ip), vehicle: saline with Tween-80, higher = longer survival): 100 % of control
T/C (endpoint: median survival time, dose: 33.0 mg/kg/injection, schedule: Q01DX009 (ip), vehicle: saline with Tween-80, higher = longer survival): 97 % of control

COc1cc(OC)c(OC)cc1/C=C\c1ccnc2ccccc12
T/C [1]: 94 % of control
T/C [2]: 93 % of control
T/C (endpoint: median survival time, dose: 400.0 mg/kg/injection, schedule: Q01DX009 (ip), vehicle: Klucel (hydroxypropylcellulose) (HPC), higher = longer survival): 97 % of control

COc1cc(O)c2c(c1)C(=O)c1cc3c(c(O)c1C2=O)C(O)C(OC)C(C)(O)C3=O (stereo not given)
T/C (endpoint: median survival time, dose: 12.5 mg/kg/injection, schedule: Q01DX009 (ip), vehicle: water, higher = longer survival): 109 % of control
T/C (endpoint: median survival time, dose: 25.0 mg/kg/injection, schedule: Q01DX009 (ip), vehicle: Klucel (hydroxypropylcellulose) (HPC), higher = longer survival): 95 % of control
T/C (endpoint: median survival time, dose: 25.0 mg/kg/injection, schedule: Q01DX009 (ip), vehicle: water, higher = longer survival): 89 % of control
T/C [1]: 103 % of control
T/C (endpoint: median survival time, dose: 50.0 mg/kg/injection, schedule: Q01DX009 (ip), vehicle: water, higher = longer survival): 124 % of control
T/C [2]: 100 % of control
T/C (endpoint: median survival time, dose: 100.0 mg/kg/injection, schedule: Q01DX009 (ip), vehicle: water, higher = longer survival): 103 % of control
T/C (endpoint: median survival time, dose: 200.0 mg/kg/injection, schedule: Q01DX009 (ip), vehicle: water, higher = longer survival): 90 % of control

CN(C)C(=O)N(CCCl)N=O
T/C (endpoint: median survival time, dose: 6.25 mg/kg/injection, schedule: Q01DX001 (ip), vehicle: water, higher = longer survival): 102 % of control
T/C (endpoint: median survival time, dose: 12.5 mg/kg/injection, schedule: Q01DX001 (ip), vehicle: water, higher = longer survival): 112 % of control
